Key:
Assay in all cases: Alanine peptidase detection, substrates with one to three amino acids (Example 15)
Assay type in all cases: cell-based
Design in all cases: key to color of the colony: R=pink; RP=pale pink; I=colorless
Details in all cases: 50 mg/l
[1] = test system: Micrococcus luteus (NCTC611)
Protocol: (§1) 1000 ml of Columbia medium was melted in a waterbath at 100° C. and autoclaved at 121° C. for 15 min. It was then cooled to 50° C. in a waterbath.
(§2) This medium was separated into 5 flasks of 200 ml, and then, added at 50° C., as substrates, was that of Example 2 for which A is: • medium 1: L-alanine (L-alanine-9-aminobenzo[a]phenoxazin-5-one or A-ABP), • medium 2: L-alanine-L-alanine (L-alanine-L-alanine-9-aminobenzo-[a]phenoxazin-5-one or AA-ABP), • medium 3: L-alanine-L-alanine-L-alanine (L-alanine-L-alanine-L-alanine-9-aminobenzo[a]phenoxazin-5-one or AAA-ABP), • medium 4: L-alanine-glycine (L-alanine-glycine-9-aminobenzo[a]phenoxazin-5-one or AG-ABP), and • medium 5: glycine-L-alanine (glycine-L-alanine-9-aminobenzo[a]phenoxazin-5-one or GA-ABP), each substrate being solubilized in DMSO and used at a final concentration of 50 mg/l.
(§3) The medium was then poured into Petri dishes.
(§4) Nine microorganism strains derived from the Applicant's collection, suspended in physiological saline, were seeded in colonies on the media prepared in point 15.1 above according to a multipoint inoculation in a proportion of 15 000 cfu/spot. The dishes were incubated at 37° C. for 48 hours. The colonies formed were examined visually after incubation for 24 and 48 hours.
(§5) The results are expressed in Tables 7 and 8 hereinafter according to the rules and the nomenclature stated in paragraph 11.3 and where R=pink, RP=pale pink and I=colorless.

[2] = test system: Enterobacter clocae (NCTC 11936)
Protocol: as §1, §2, §3, §4, §5

[3] = test system: Pseudomonas aerigunosa (NCTC 10038)
Protocol: as §1, §2, §3, §4, §5

[4] = test system: Escherichia coli (NCTC 10418)
Protocol: as §1, §2, §3, §4, §5

[5] = test system: Listeria monocytogenes (NCTC 11994)
Protocol: as §1, §2, §3, §4, §5

[6] = test system: Acinetobacter baumannii (ATCC 19606)
Protocol: as §1, §2, §3, §4, §5

[7] = test system: Staphylococcus aureus (NCTC 6571)
Protocol: as §1, §2, §3, §4, §5

[8] = test system: Staphylococcus epidermis (NCTC 11047)
Protocol: as §1, §2, §3, §4, §5

Row | Substance | growth diameter ([1]; 24 h) | growth diameter ([1]; 48 h) | color of the colony ([2]; 24 h) | growth diameter ([2]; 24 h) | color of the colony ([2]; 48 h) | growth diameter ([2]; 48 h) | color of the colony ([3]; 24 h) | growth diameter ([3]; 24 h) | color of the colony ([3]; 48 h) | growth diameter ([3]; 48 h) | color of the colony ([4]; 24 h) | growth diameter ([4]; 24 h) | color of the colony ([4]; 48 h) | growth diameter ([4]; 48 h) | color of the colony ([5]; 24 h) | growth diameter ([5]; 24 h) | color of the colony ([5]; 48 h) | growth diameter ([5]; 48 h) | color of the colony ([6]; 24 h) | growth diameter ([6]; 24 h) | further results
1 | glycine-L-alanine-9-aminobenzo[a]phenoxazin-5-one [GA-ABP] | 0 mm | 0 mm | R | 3 mm | R | 3 mm | RP | 3 mm | R | 3 mm | R | 3 mm | R | 3 mm | I | 2 mm | R | 2 mm | R | 3 mm | color of the colony ([6]; 48 h): R; growth diameter ([6]; 48 h): 3 mm; color of the colony ([7]; 24 h): I; growth diameter ([7]; 24 h): 3 mm; color of the colony ([7]; 48 h): I; growth diameter ([7]; 48 h): 3 mm; color of the colony ([8]; 24 h): I; growth diameter ([8]; 24 h): 1 mm; color of the colony ([8]; 48 h): I; growth diameter ([8]; 48 h): 2 mm
2 | L-alanine-L-alanine-L-alanine-9-aminobenzo[a]phenoxazin-5-one [AAA-ABP] | 1 mm | 3 mm | R | 3 mm | R | 3 mm | R | 3 mm | R | 3 mm | R | 3 mm | R | 3 mm | R | 2 mm | R | 2 mm | R | 3 mm | color of the colony ([1]; 24 h): R; color of the colony ([1]; 48 h): R; color of the colony ([6]; 48 h): R; growth diameter ([6]; 48 h): 3 mm; color of the colony ([7]; 24 h): I; growth diameter ([7]; 24 h): 3 mm; color of the colony ([7]; 48 h): I; growth diameter ([7]; 48 h): 3 mm; color of the colony ([8]; 24 h): I; growth diameter ([8]; 24 h): 2 mm; color of the colony ([8]; 48 h): I; growth diameter ([8]; 48 h): 2 mm
3 | L-alanine-L-alanine-9-aminobenzo-[a]phenoxazin-5-one [AA-ABP] | 0 mm | 0 mm | R | 3 mm | R | 3 mm | R | 3 mm | R | 3 mm | R | 3 mm | R | 3 mm | R | 2 mm | R | 2 mm | R | 3 mm | color of the colony ([6]; 48 h): R; growth diameter ([6]; 48 h): 3 mm; color of the colony ([7]; 24 h): I; growth diameter ([7]; 24 h): 3 mm; color of the colony ([7]; 48 h): I; growth diameter ([7]; 48 h): 2 mm; color of the colony ([8]; 24 h): I; growth diameter ([8]; 24 h): 2 mm; color of the colony ([8]; 48 h): I; growth diameter ([8]; 48 h): 2 mm
4 | L-alanine-glycine-9-aminobenzo[a]phenoxazin-5-one [AG-ABP] | 1 mm | 3 mm | R | 3 mm | R | 3 mm | RP | 3 mm | R | 3 mm | R | 3 mm | R | 3 mm | I | 2 mm | I | 3 mm | RP | 3 mm | color of the colony ([1]; 24 h): I; color of the colony ([1]; 48 h): R; color of the colony ([6]; 48 h): R; growth diameter ([6]; 48 h): 3 mm; color of the colony ([7]; 24 h): I; growth diameter ([7]; 24 h): 3 mm; color of the colony ([7]; 48 h): I; growth diameter ([7]; 48 h): 3 mm; color of the colony ([8]; 24 h): I; growth diameter ([8]; 24 h): 3 mm; color of the colony ([8]; 48 h): I; growth diameter ([8]; 48 h): 3 mm

— US7695930B2, “Method for the detection, identification and/or quantification of microoganisms with peptidase activity using phenoxazinone derivatives as enzyme substrates” (Biomerieux, priority 2003, dated 2010)
